Values belong to the compound of their own block, whether it stands above or below them.
Assays:
Assay type in all cases: binding
STAT5B-NTD [1] = tested on: T1, STAT5B-NTD; test: Intact MS photoaffinity labeling screen, STAT5B-NTD (365 nm, UHPLC-MS); details: for MS labeling percentage, STAT5B: STAT5B-NTD, 365 nm 10 min, no photocatalyst; for STAT5B-NTD: experimental hit status flag (0/1);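 for MS labeling percentage, STAT5B: 0.17 µL of 100 mM DMSO fragment stock added to the protein sample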
T1 construct: His-SUMO (N, cleaved yes); made in house; host or cells: E. coli BL21 RILP
Method: STAT5B protein in 7 µM concentration in pH 7.4 PBS buffer was pre-incubated with 0.17 µL PhP (in 100 mM DMSO solution) for 1 h at room temperature in dark. Irradiation was carried out at 4 °C for 10 min using 365 nm UV lamp.
(§1) During the analysis, the column temperature was maintained at a constant 60 °C, and a sample volume of 3 µL was injected for each analysis. Data acquisition was conducted in positive ion mode within the m/z 100–2000 (mass-to-charge ratio) range. For the full protocol and spectra of the hits, see Supplementary Note 2.

[2] = tested on: carbonic anhydrase II (CA); test: Intact protein MS photoaffinity labeling screen, carbonic anhydrase; details: intact protein MS after 10 min irradiation
Method: (§2) Using a plate-based format with one fragment per well, each fragment was incubated with the target proteins for 15 min to allow for the formation of non-covalent interactions. […] Finally, the results were directly analyzed from the plate using intact protein mass spectrometry by observing the mass additions that correspond to successful labeling (Fig. 2c, for labeling % values see Supplementary data). The library was first characterized against three benchmark proteins like carbonic anhydrase (CA), lysozyme (Lyo), and myoglobin (Myo).

KRas^G12D = tested on: T2, KRas^G12D; test: Intact MS photoaffinity labeling screen, KRas G12D (302 nm, LCMS-TOF); details: for MS labeling percentage, KRas: KRas G12D, 302 nm 10 min; for KRAS-G12D: experimental hit status flag (0/1)
T2 construct: purchased GSK/GenScript
Method: as §2
(§3) The PhP library was screened against BRD4-BD1 and KRas^G12D as follows. […] The probe plate was placed on ice. 15 μL of protein stock solution (1 μM BRD4-BD1 (GSK/GenScript) or KRas^G12D (GSK/GenScript) in PBS buffer) was dispensed into wells containing fragments. The plate was left on ice for 15 min for incubation, then irradiated at 302 nm for 10 min, and centrifuged (1000 rpm, 1 min) to remove any bubbles. […] The deconvoluted spectra were analyzed using R Studio software.

BRD4-BD1 = tested on: T3, BRD4-BD1; test: Intact MS photoaffinity labeling screen, BRD4-BD1 (302 nm, LCMS-TOF); details: for MS labeling percentage, BRD4: BRD4-BD1, 302 nm 10 min; for BRD4-BD1: experimental hit status flag (0/1)
T3 construct: screened the PhP library against the first bromodomain of BRD4 (BRD4-BD1); purchased GSK/GenScript
Method: as §2, §3

lysozyme (Lyo) = test: Intact protein MS photoaffinity labeling screen, lysozyme; details: intact protein MS after 10 min irradiation
Method: as §2

STAT5B-NTD [3] = tested on: T1, STAT5B-NTD; test: Intact MS labeling screen, STAT5B-NTD conjugated with photocatalyst Ir-G2-PEG3-COOH (450 nm); details: 450 nm 10 min;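 note: 0.14 µL of 100 mM DMSO fragment stock added to the conjugate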
Method: For the photocatalysis experiments, 1.4 µL photocatalyst (in 1.4 mM DMSO solution, 10 eq) was pre-incubated with 1.5 µL coupling reagent (0.75 µL, 5.6 mM EDC (20 eq)+0.75 µL 4.2 mM NHS and 1.5 µL 2.1 mM (15 eq) BOP for 30 min in dark. 30 µL STAT5B-NTD (in 7 µM concentration) was added and incubated further at room temperature overnight or at 37 °C for 1 h in dark. After addition of 0.14 µL PhP (in 100 mM DMSO) the solution was further incubated in dark for 1 h. Irradiation was carried out using 450 nm LED lamp (7.6Vx0A) for 10 min at 4 °C.
as §1

myoglobin (Myo) = test: Intact protein MS photoaffinity labeling screen, myoglobin; details: intact protein MS after 10 min irradiation
Method: as §2

[4] = sheet PhP, experimental hit status flag given as 0 or 1
[5] = PhP library sheet "PhP", binary flag printed as 0 or 1, key not given
[6] = hit flag 1/0, sheet PhP, photoaffinity labeling screen

SMILES: CC1(CCC(=O)Nc2sc3c(c2C(N)=O)CCC(C(C)(C)C)C3)N=N1 (stereo not shown) [PhP049, CC(C)(C)C(CC1)Cc(c12)sc(c2C(=O)N)NC(=O)CCC3(C)N=N3]
MS labeling percentage, STAT5B (STAT5B-NTD [1]): 1% | STAT5B-NTD (experimental hit status) (STAT5B-NTD [1]; [6]): 0 | MS labeling percentage, CA [2]: 0.2% | MS labeling percentage, KRas (KRas^G12D): 0.1% | KRAS-G12D (experimental hit status) (KRas^G12D; [6]): 0 | MS labeling percentage, BRD4 (BRD4-BD1): 0% | BRD4-BD1 (experimental hit status) (BRD4-BD1; [6]): 0 | MS labeling percentage, Lyo (lysozyme (Lyo)): 0% | MS labeling percentage, STAT5B+photocat (STAT5B-NTD [3]): 2% | MS labeling percentage, Myo (myoglobin (Myo)): 0.1%

SMILES: CC1(CCC(=O)NC2CCCC(NC(=O)OC(C)(C)C)C2)N=N1 (stereo not shown) [PhP015, CC(C)(C)OC(=O)NC1CCCC(C1)NC(=O)CCC2(C)N=N2]
MS labeling percentage, STAT5B (STAT5B-NTD [1]): 1% | STAT5B-NTD (STAT5B-NTD [1]): 0 | MS labeling percentage, CA [2]: 0.3% | MS labeling percentage, KRas (KRas^G12D): 0.6% | KRAS-G12D (KRas^G12D): 0 | MS labeling percentage, BRD4 (BRD4-BD1): 0.3% | BRD4-BD1 (BRD4-BD1): 0 | MS labeling percentage, Lyo (lysozyme (Lyo)): 1.1% | MS labeling percentage, STAT5B+photocat (STAT5B-NTD [3]): 1.6% | MS labeling percentage, Myo (myoglobin (Myo)): 0.2%

SMILES: COC(=O)C(NC(=O)CCC1(C)N=N1)c1ccc(C)cc1 (stereo not shown) [PhP019, c1cc(C)ccc1C(C(=O)OC)NC(=O)CCC2(C)N=N2]
experimental hit status STAT5B-NTD (STAT5B-NTD [1]; 0/1 flag): 0 | MS labeling percentage, STAT5B (STAT5B-NTD [1]): 1% | MS labeling percentage, CA [2]: 0.2% | experimental hit status KRAS-G12D (KRas^G12D; 0/1 flag): 0 | MS labeling percentage, KRas (KRas^G12D): 0% | experimental hit status BRD4-BD1 (BRD4-BD1; 0/1 flag): 0 | MS labeling percentage, BRD4 (BRD4-BD1): 0.3% | MS labeling percentage, Lyo (lysozyme (Lyo)): 0% | MS labeling percentage, STAT5B+photocat (STAT5B-NTD [3]): 2.7% | MS labeling percentage, Myo (myoglobin (Myo)): 0.1%

SMILES: Cc1nc2cc(NC(=O)CCC3(C)N=N3)ccc2n1-c1ccccc1 [PhP017, c1ccccc1-n(c(n2)C)c(c23)ccc(c3)NC(=O)CCC4(C)N=N4]
MS labeling percentage, STAT5B (STAT5B-NTD [1]): 1% | STAT5B-NTD (STAT5B-NTD [1]): 0 | MS labeling percentage, CA [2]: 0.6% | MS labeling percentage, KRas (KRas^G12D): 0.9% | KRAS-G12D (KRas^G12D): 0 | MS labeling percentage, BRD4 (BRD4-BD1): 3.4% | BRD4-BD1 (BRD4-BD1): 0 | MS labeling percentage, Lyo (lysozyme (Lyo)): 0.1% | MS labeling percentage, STAT5B+photocat (STAT5B-NTD [3]): 4.4% | MS labeling percentage, Myo (myoglobin (Myo)): 0.5%

SMILES: COc1ccc(-c2csc(CCNC(=O)CCC3(C)N=N3)n2)cc1 [PhP006, COc1ccc(cc1)-c2csc(n2)CCNC(=O)CCC3(C)N=N3]
MS labeling percentage, STAT5B (STAT5B-NTD [1]): 0% | STAT5B-NTD (STAT5B-NTD [1]): 0 | MS labeling percentage, CA [2]: 0.6% | MS labeling percentage, KRas (KRas^G12D): 1.3% | KRAS-G12D (KRas^G12D): 0 | MS labeling percentage, BRD4 (BRD4-BD1): 2.3% | BRD4-BD1 (BRD4-BD1): 0 | MS labeling percentage, Lyo (lysozyme (Lyo)): 0% | MS labeling percentage, STAT5B+photocat (STAT5B-NTD [3]): 3.3% | MS labeling percentage, Myo (myoglobin (Myo)): 0.3%

Now from value to compound, other results behind:

MS labeling percentage, CA [2]: 0.2%
SMILES: Cc1cc2ncn(CC(O)CNC(=O)CCC3(C)N=N3)c2cc1C (stereo not shown) [PhP067, Cc(c1)c(C)cc(c12)n(cn2)CC(O)CNC(=O)CCC3(C)N=N3]
MS labeling percentage, STAT5B (STAT5B-NTD [1]): 2% | STAT5B-NTD (experimental hit status) (STAT5B-NTD [1]; [4]): 0 | MS labeling percentage, KRas (KRas^G12D): 0.6% | KRAS-G12D (experimental hit status) (KRas^G12D; [4]): 0 | MS labeling percentage, BRD4 (BRD4-BD1): 0.8% | BRD4-BD1 (experimental hit status) (BRD4-BD1; [4]): 0 | MS labeling percentage, Lyo (lysozyme (Lyo)): 0% | MS labeling percentage, STAT5B+photocat (STAT5B-NTD [3]): 0.3% | MS labeling percentage, Myo (myoglobin (Myo)): 0.5%

MS labeling percentage, CA [2]: 0.4%
SMILES: CC1(CCC(=O)NCc2nnc3n2CCC3)N=N1 [PhP083, N1=NC1(C)CCC(=O)NCc(nn2)n(c23)CCC3]
STAT5B-NTD (experimental hit status) (STAT5B-NTD [1]; [5]): 0 | MS labeling percentage, STAT5B (STAT5B-NTD [1]): 1% | MS labeling percentage, KRas (KRas^G12D): 0.2% | KRAS-G12D (experimental hit status) (KRas^G12D; [5]): 0 | MS labeling percentage, BRD4 (BRD4-BD1): 0.3% | BRD4-BD1 (experimental hit status) (BRD4-BD1; [5]): 0 | MS labeling percentage, Lyo (lysozyme (Lyo)): 0% | MS labeling percentage, STAT5B+photocat (STAT5B-NTD [3]): 0.7% | MS labeling percentage, Myo (myoglobin (Myo)): 0.1%

— article PMC11292009, “Mapping protein binding sites by photoreactive fragment pharmacophores” (Communications Chemistry, 2024)
